Test results as given in patent US9695155B2, “Herbicidal substituted pyrimidinyloxy benzene compounds” (E. I. DU PONT DE NEMOURS AND COMPANY, priority 2013, dated 2017).

How the values were obtained:
[1] = test system: galium; experiment: Test A postemergence; type: in vivo, Galium aparine
How it was run: (§1)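 Visual injury scored 0–100 (100 = complete control) against untreated controls about 10 days after treatment in a greenhouse. Test chemicals, formulated with surfactant in non-phytotoxic solvent, were sprayed on soil preemergence or on 2-10 cm, one- to two-leaf plants postemergence.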

[2] = test system: Italian ryegrass; experiment: Test A postemergence; type: in vivo, Lolium multiflorum
How it was run: as §1

[3] = test system: ragweed; experiment: Test A preemergence; type: in vivo, Ambrosia elatior; details: 0 to 100 scale where 0 is no effect and 100 is complete control
How it was run: as §1

[4] = test system: giant foxtail; experiment: Test A postemergence; type: in vivo, Setaria faberii; details: for Foxtail, Giant plant response rating: 125 g ai/ha
How it was run: as §1

[5] = test system: corn; experiment: Test A postemergence; type: in vivo, Zea mays; details: for Corn plant response rating: 125 g ai/ha
How it was run: as §1

[6] = test system: velvetleaf; experiment: Test C postemergence; type: in vivo, Abutilon theophrasti; details: for Plant response rating (0 to 100), Velvetleaf: 16 g ai/ha, 0 is no effect, 100 is complete control; for Plant response rating, Velvetleaf / Velvetleaf plant response rating: scale 0 to 100 (0 no effect, 100 complete control); for Velvetleaf plant response rating: 31 g ai/ha
How it was run: (§2)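 Sown in loam/sand → sprayed pre-emergence; or grown to 1–4 leaves in peat mix → sprayed post-emergence. Same solvent/surfactant formulation both ways. Greenhouse 13–15 d. Score 0–100 visual.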

[7] = test system: kochia; experiment: Test C postemergence; type: in vivo, Kochia scoparia; details: for Plant response rating (0 to 100), Kochia: 16 g ai/ha, 0 is no effect, 100 is complete control; for Plant response rating, Kochia / Kochia plant response rating: scale 0 to 100 (0 no effect, 100 complete control); for Kochia plant response rating: 31 g ai/ha
How it was run: as §2

[8] = test system: chickweed; experiment: Test C postemergence; type: in vivo, Stellaria media; details: for Plant response rating (0 to 100), Chickweed: 16 g ai/ha, 0 is no effect, 100 is complete control; for Plant response rating, Chickweed / Chickweed plant response rating: scale 0 to 100 (0 no effect, 100 complete control); for Chickweed plant response rating: 31 g ai/ha
How it was run: as §2

[9] = test system: Italian ryegrass; experiment: Test C postemergence; type: in vivo, Lolium multiflorum; details: for Plant response rating (0 to 100), Ryegrass, Italian: 16 g ai/ha, 0 is no effect, 100 is complete control; for Plant response rating, Ryegrass, Italian / Ryegrass, Italian plant response rating: scale 0 to 100 (0 no effect, 100 complete control); for Ryegrass, Italian plant response rating: 31 g ai/ha
How it was run: as §2

[10] = test system: blackgrass; experiment: Test A postemergence; type: in vivo, Alopecurus myosuroides
How it was run: as §1

[11] = test system: pigweed; experiment: Test C postemergence; type: in vivo, Amaranthus retroflexus; details: for Plant response rating (0 to 100), Pigweed: 16 g ai/ha, 0 is no effect, 100 is complete control; for Plant response rating, Pigweed / Pigweed plant response rating: scale 0 to 100 (0 no effect, 100 complete control); for Pigweed plant response rating: 31 g ai/ha
How it was run: as §2

[12] = test system: Italian ryegrass; experiment: Test A preemergence; type: in vivo, Lolium multiflorum; details: 0 to 100 scale where 0 is no effect and 100 is complete control
How it was run: as §1

[13] = test system: large (Lg) crabgrass; experiment: Test A postemergence; type: in vivo, Digitaria sanguinalis; details: 0 to 100 scale where 0 is no effect and 100 is complete control; for Crabgrass, Large plant response rating: 125 g ai/ha; for Plant response rating, Crabgrass, Large: 500 g ai/ha
How it was run: as §1

[14] = test system: morningglory; experiment: Test A postemergence; type: in vivo, Ipomoea spp.; details: 0 to 100 scale where 0 is no effect and 100 is complete control; for Morningglory plant response rating: 125 g ai/ha; for Plant response rating, Morningglory: 500 g ai/ha
How it was run: as §1

[15] = 31 g ai/ha, 0 to 100 scale, 0 no effect, 100 complete control
[16] = 125 g ai/ha, 0 to 100 scale where 0 is no effect and 100 is complete control
[17] = 31 g ai/ha, visual, approximately 10 days
[18] = 0 to 100 scale where 0 is no effect and 100 is complete control
[19] = 125 g ai/ha, postemergence, visual rating
[20] = 500 g ai/ha, 0 to 100 scale where 0 is no effect and 100 is complete control
[21] = postemergence, visual rating, 13 to 15 days
[22] = Postemergence, 62 g ai/ha, 13 to 15 days

Row | SMILES | Foxtail, Giant plant response rating [4, 18] | Corn plant response rating [5, 18] | Plant response rating (0 to 100), Velvetleaf ([6]; postemergence) | Plant response rating, Velvetleaf [6, 19] | Plant response rating (0 to 100), Kochia ([7]; postemergence) | Plant response rating, Kochia [7, 19] | Plant response rating (0 to 100), Chickweed ([8]; postemergence) | Plant response rating, Chickweed [8, 19] | Plant response rating (0 to 100), Ryegrass, Italian ([9]; postemergence) | Plant response rating, Ryegrass, Italian [9, 19] | Plant response rating (0 to 100), Pigweed ([11]; postemergence) | Plant response rating, Pigweed [11, 19] | Crabgrass, Large plant response rating [13] | Plant response rating, Crabgrass, Large [13] | Morningglory plant response rating [14] | Plant response rating, Morningglory [14] | Plant response rating, Foxtail, Giant [4, 20] | Plant response rating, Corn [5, 20] | Velvetleaf plant response rating [6, 21] | Plant response rating, Velvetleaf [6, 22] | other results
1 | N#Cc1cnn(-c2c(Br)cccc2Oc2ncc(Cl)cn2)c1 [Compound 140] | 90 | 30 | 5 | 60 | 70 | 90 | 30 | 70 | 0 | 0 | 85 | 90 |  |  |  |  |  |  |  |  | Plant response rating, Galium [1, 15]: 80; Galium plant response rating [1, 16]: 90; Plant response rating, Ryegrass, Italian [2, 15]: 0; Ryegrass, Italian plant response rating [2, 16]: 30; Plant response rating, Ragweed [3, 17]: 30; Plant response rating, Ragweed ([3]; 125 g ai/ha): 70; Plant response rating, Foxtail, Giant [4, 15]: 30; Plant response rating, Corn [5, 15]: 20; Plant response rating, Velvetleaf ([6]; Postemergence, 62 g ai/ha): 45; Plant response rating, Kochia ([7]; Postemergence, 62 g ai/ha): 85; Plant response rating, Chickweed ([8]; Postemergence, 62 g ai/ha): 45; Plant response rating, Ryegrass, Italian ([9]; Postemergence, 62 g ai/ha): 0; Plant response rating, Blackgrass [10, 15]: 30; Blackgrass plant response rating [10, 16]: 70; Plant response rating, Pigweed ([11]; Postemergence, 62 g ai/ha): 90; Plant response rating, Ryegrass, Italian [12, 17]: 0; Plant response rating, Ryegrass, Italian ([12]; 125 g ai/ha): 0
2 | FC(F)c1cnn(-c2c(Br)cccc2Oc2ncc(Cl)cn2)c1 [Compound 232] | 70 | 30 | 35 | 65 | 85 | 98 | 5 | 60 | 0 | 10 | 60 | 85 | 60 | 90 | 80 | 90 | 90 | 90 | 60 | 30 | Kochia plant response rating [7, 21]: 85; Plant response rating, Kochia [7, 22]: 90; Chickweed plant response rating [8, 21]: 30; Plant response rating, Chickweed [8, 22]: 50; Ryegrass, Italian plant response rating [9, 21]: 0; Plant response rating, Ryegrass, Italian [9, 22]: 5; Pigweed plant response rating [11, 21]: 70; Plant response rating, Pigweed [11, 22]: 60
3 | Clc1cnc(Oc2cccc(Cl)c2-n2cc(Cl)cn2)nc1 [Compound 220] | 80 | 40 | 30 | 60 | 90 | 95 | 65 | 80 | 0 | 10 | 65 | 90 | 100 | 100 | 50 | 100 | 90 | 70 | 50 | 65 | Kochia plant response rating [7, 21]: 90; Plant response rating, Kochia [7, 22]: 95; Chickweed plant response rating [8, 21]: 70; Plant response rating, Chickweed [8, 22]: 80; Ryegrass, Italian plant response rating [9, 21]: 0; Plant response rating, Ryegrass, Italian [9, 22]: 5; Pigweed plant response rating [11, 21]: 75; Plant response rating, Pigweed [11, 22]: 85
4 | FC(F)c1cnn(-c2c(Cl)cccc2Oc2ncc(Cl)cn2)c1 [Compound 192] | 70 | 10 | 35 | 75 | 30 | 90 | 45 | 60 | 0 | 5 | 60 | 70 | 50 | 90 | 80 | 100 | 90 | 60 | 60 | 65 | Kochia plant response rating [7, 21]: 45; Plant response rating, Kochia [7, 22]: 85; Chickweed plant response rating [8, 21]: 50; Plant response rating, Chickweed [8, 22]: 70; Ryegrass, Italian plant response rating [9, 21]: 0; Plant response rating, Ryegrass, Italian [9, 22]: 5; Pigweed plant response rating [11, 21]: 65; Plant response rating, Pigweed [11, 22]: 80
